Measurements published in patent US10363284B2, “β-hairpin peptidomimetics” (POLYPHOR AG, priority 2012, dated 2019).
Where two headings read alike, the source gives them in different places. Positions of bridges follow the written chain, without caps; N, C: chain ends. Non-standard residues stand in square brackets, D forms with d. Residues, ends and D or L forms follow the SMILES beside them. dLys(iPr) = CC(C)NCCCC[C@@H](N)C(=O)O; Lys(iPr) = CC(C)NCCCC[C@H](N)C(=O)O; Orn(iPr) = CC(C)NCCC[C@H](N)C(=O)O; Ac3c = NC1(C(=O)O)CC1

Legend:
[1] = Drug loading calculations via maintenance dose rate; conditions: CLiv-mouse scaled by 0.127 (GFR human/mouse)
Method: The drug load for an implant comprising a peptide of the invention was calculated following the basic principles in pharmacokinetics (see also J. Gabrielsson, D. Weiner, “Pharmacokinetics and Pharmaco-dynamics Data Analysis: Concepts and Applications”, 4th edition, Swedish Pharmaceutical Press, Stockholm, Sweden, 2006) whereby the maintenance dose rate (rate of infusion, Rin) can be defined as the rate at which a drug is to be administered to reach a steady state of a certain dose in the plasma. The maintenance dose rate can be expressed using the correlation Rin [g/(h*kg)]=CLiv, [L/(h*kg)]×Css,eff [g/L], wherein CLiv, is the clearance (i.v.—admin.) and Css,eff the effective concentration of the drug in the plasma at steady state considering an efficacy margin A: Css,eff[g/L]=A×(IC50/fu)×MW [(Mol/L)*(g/Mol)]. Therefore, the total amount of a drug loaded into an implant providing for a constant effective concentration of that drug in the plasma for a certain period of time in a subject of a certain body weight can be calculated by applying the following correlation: Drugload [g/subject]=Rin [g/(h*kg)]×duration [h]×BW [kg/subject].
Further pre-conditions are an efficacy margin of A=3, a study duration of 672 h (28 days) and a body weight of a human subject of 70 kg. […]

[2] = Pharmacokinetic study (PK) after intravenous administration; format: in vivo, male CD-1 mice; conditions: mouse, i.v. 1 mg/kg; for AUC(0-inf) / Cmax / half-life / clearance / Vd: one-compartmental model; for clearance: read-out: CLiv (converted); for Vd: read-out: Vdis
Method: For the compounds of Ex. 1 and Ex. 2 pharmacokinetic studies after intravenous (i.v.) administration were performed.
30 grams (±20%) male CD-1 mice obtained from Charles River Laboratories Deutschland GmbH were used. The vehicle, phosphate buffered saline, was added to give a final concentration of 0.5 mg/mL of the compound. The volume was 2 mL/kg and the compound was injected to give a final intravenous dose of 1 mg/kg. Approximately 300-400 μL of blood was removed under light isoflurane anesthesia by cardiac puncture at predetermined time intervals (5, 15, 30 min and 1, 2, 3, 4, hours) and added to heparinized tubes. Plasma was removed from pelleted cells upon centrifugation and frozen at −80° C. prior to HPLC-MS analysis.
Aliquots of 50 μL each of mouse plasma of untreated aminals (“blank” mouse plasma) were spiked with known amounts of the compounds Ex. 1 and Ex. 2 in order to obtain 10 plasma calibration samples for each compound in the range 1-4000 ng/mL.
Aliquots of 50 μL each of mouse plasma from treated animals were used as plasma study samples.
All plasma samples were spiked with an appropriate internal standard and extracted with acetonitrile containing 2% formic acid. Supernatants were evaporated to dryness under nitrogen and the remaining solids reconstituted in water+0.2% formic acid/acetonitrile 95/5 (v/v).
Extracts were then analyzed by reverse-phase chromatography (Acquity HSS C18 SB, 100×2.1 mm, 1.8 μm column, Waters), using the following conditions: mobile phases: (A) water+0.1% formic acid/acetonitrile 95/5 (v/v), (B) aceto-nitrile/water+0.1% formic acid 95/5 (v/v), gradient: 1% (B) 0-0.1 min, 40% (B) 0.1-2.5. The detection and quantification was performed by mass spectrometry, with electrospray interface in positive mode and selective fragmentation of analytes (4000 Q Trap mass spectrometer, AB Sciex).
PK parameters were calculated by WinNonLin™ software version 5.3 (Pharsight-A Certara™ Company, Mountain View, Calif. 94041 USA) using a one-compartmental model analysis. PK parameters were determined by least-square fitting of the model to the experimental data.

Plasma protein binding = format: in vitro ADME; conditions: human
Method: 495 μL aliquots of human plasma (Basler Blutspendedienst) as well as 495 μL aliquots of PBS were placed in individual deepwells of a polypropylene plate (Greiner) and spiked each with 5 μL of 1 mM solutions of peptides in 90% DMSO. After shaking the plate for 2 min at 600 rpm 150 μL aliquots of the plasma/peptide mixtures were transferred in triplicates to the polypropylene filter plate (10 kDa, Millipore) whereas 150 μL aliquots of the PBS/peptide mixtures were transferred either to the individual wells of the filter plate (filtered controls) or directly into the individual wells of the receiving plate (Greiner) (non-filtered controls). The plate sandwich consisting of filter and receiving plate was incubated for 1 h at 37° C. and subsequently centrifuged at 3220 g for 2 h at 15° C. The filtrates in the receiving plate were analysed by LC/MS as follows: Column: Waters, XBridge C18, mobile phases: (A) water+0.1% formic acid and (B) acetonitrile/water, 95/5 (v/v)+0.1% formic acid, gradient: 5%-100% (B) in 1.8 minutes, electrospray ionization, MRM detection (triple quadrupole). The peak areas were determined and triplicate values are averaged. The binding is expressed in percent of the filtered and non-filtered controls by 100−(100×T1h/Tctr). Finally the average of these values is calculated.

[3] = system: human red blood cells (hRBC); format: cell-based; conditions: red cells of human, 1 h
Method: The peptides were tested for their hemolytic activity against human red blood cells (hRBC). Fresh hRBC were washed four times with phosphate buffered saline (PBS) and centrifuged for 10 min at 3000×g. Compounds (100 μM) were incubated with 20% hRBC (v/v) for 1 h at 37° C. and shaking at 300 rpm. The final erythrocyte concentration was approximately 0.9×10^9 cells/mL. A value of 0% and 100% cell lysis, respectively, was determined by incubation of hRBC in the presence of PBS containing 0.001% acetic acid and 2.5% Triton X-100 in H2O, respectively. The samples were centrifuged, the supernatants were 8-fold diluted in PBS buffer and the optical densities (OD) were measured at 540 nm. The 100% lyses value (OD540H2O) gave an OD540 of approximately 0.5-1.0.
Percent hemolysis was calculated as follows: (OD540peptide/OD540H2O)×100%.

[4] = male, CD-1, plasma, iv, read-out: Calc. Conc. (plasma)
[5] = read-out: Plasma protein binding (converted)

SMILES | CLiv, human (allometric scaled) [1] [mL/min/kg] | AUC(0-inf) ([2]; male, CD-1, plasma, iv) [ng·h/mL] | Cmax ([2]; male, CD-1, plasma, iv) [ng/mL] | half-life ([2]; male, CD-1, plasma, iv) [min] | clearance ([2]; male, CD-1, plasma, iv) [mL/min/kg] | Vd ([2]; male, CD-1, plasma, iv) [L/kg] | level at 0.083 h [2, 4] [ng/mL] | level at 0.25 h [2, 4] [ng/mL] | level at 0.5 h [2, 4] [ng/mL] | level at 1 h [2, 4] [ng/mL] | level at 2 h [2, 4] [ng/mL] | level at 3 h ([2]; male, CD-1, plasma, iv, time 3 h, read-out: Calc. Conc. (plasma)) [ng/mL] | level at 4 h ([2]; male, CD-1, plasma, iv, time 4 h, read-out: Calc. Conc. (plasma)) [ng/mL] | fraction unbound at 1 h, 10 μM (Plasma protein binding; read-out: Fraction unbound, fu) | fraction unbound at 1 h, 10 μM (Plasma protein binding; [5]) | Hemolysis at 100 μM [3] [%] | Calc. Conc. (plasma) ([2]; time 3 h) | Calc. Conc. (plasma) ([2]; time 4 h)
CC(C)NCCCC[C@@H]1NC(=O)[C@H](CCC(N)=O)NC(=O)[C@H](Cc2ccc(O)cc2)NC(=O)[C@@H]2CSSC[C@H](NC(=O)[C@H](Cc3ccc(O)cc3)NC(=O)[C@H](Cc3c[nH]cn3)NC(=O)[C@H](Cc3ccc(O)cc3)NC(=O)[C@@H]3CCCN3C(=O)[C@H]3CCCN3C1=O)C(=O)N[C@@H](CO)C(=O)NC1(CC1)C(=O)N1CCC[C@@H]1C(=O)N[C@@H](CCCNC(C)C)C(=O)N[C@@H](CCCNC(=N)N)C(=O)N[C@@H](Cc1ccc(O)cc1)C(=O)N2 [Ex. 2, cyclo(-Tyr^1-His^2-Tyr^3-Cys^4-Ser^5-Acc^6-^DPro^7-Orn(iPr)^8-Arg^9-Tyr^10-Cys^11-Tyr^12-Gln^13-Lys(iPr)^14-^DPro^15-Pro^16-), disulfide bond between Cys^4 and Cys^11] (cyclo(YHYCS[Ac3c][dP][Orn(iPr)]RYCYQ[Lys(iPr)][dP]P); disulfide 4-11) | 1.45 | 1460 | 1470 | 42 | 11.4 | 0.681 | 1250 | 1210 | 996 | 516 | 117 | 24 | 14 | 0.57 | 0.57 | 1.0 |  | 
CC(C)NCCCC[C@@H]1NC(=O)[C@H](CCC(N)=O)NC(=O)[C@H](Cc2ccc(O)cc2)NC(=O)[C@@H]2CSSC[C@H](NC(=O)[C@H](Cc3ccc(O)cc3)NC(=O)[C@H](Cc3c[nH]cn3)NC(=O)[C@H](Cc3ccc(O)cc3)NC(=O)[C@@H]3CCCN3C(=O)[C@@H](CCCCNC(C)C)NC1=O)C(=O)N[C@@H](CO)C(=O)N[C@@H](C)C(=O)N1CCC[C@@H]1C(=O)N[C@@H](CCCNC(C)C)C(=O)N[C@@H](CCCNC(=N)N)C(=O)N[C@@H](Cc1ccc(O)cc1)C(=O)N2 [Ex. 1, cyclo(-Tyr^1-His^2-Tyr^3-Cys^4-Ser^5-Ala^6-^DPro^7-Orn(iPr)^8-Arg^9-Tyr^10-Cys^11-Tyr^12-Gln^13-Lys(iPr)^14-^DLys(iPr)^15-Pro^16-), disulfide bond between Cys^4 and Cys^11] (cyclo(A[dP][Orn(iPr)]RYCYQ[Lys(iPr)][dLys(iPr)]PYHYCS); disulfide 6-15) | 2.08 | 1020 | 1880 | 24 | 16.4 | 0.532 | 1690 | 1050 | 749 | 385 | 61 |  |  | 0.45 | 0.45 | 1.0 | <LoQ | <LoQ
